Results from patent publication US20240190856A1, “MELANOCORTIN-4 RECEPTOR AGONIST” (LG CHEM, LTD., priority 2021, published 2024).
Structures can show the parent of a compound that is named as a salt.

Legend:
Format in all cases: cell-based
MC4R [1] = biological target: T1, MC4R (Homo sapiens, UniProt P32245); test: cAMP assay (cAMP Hunter Gs-coupled CHO-K1 cell line); design: expressed in transfected cells; host or cells: CHO-K1 (cAMP Hunter Gs-coupled cell line); conditions: CHO-K1 cells overexpressing MC4R, 37° C. for 30 minutes
Excerpt: The melanocortin receptor is a type of G-protein coupled receptor (GPCR), and the main role of G-protein is to activate secondary transducers to regulate cellular responses to many physiological stimuli through signal transduction. MC4R is a Gs-coupled receptor, and it is known that if MC4R interacts with an agonist, adenylate cyclase (AC) is activated to increase the concentration of cyclic AMP (cAMP), which is one of the secondary transducers in cells. Therefore, it is possible to evaluate the activity of melanocortin receptors by measuring the generation of cAMP signals.
After cAMP Hunter Gs-coupled cell lines (CHO-K1 cell line) in which each of MC1R, MC3R, MC4R and MC5R was overexpressed were established so that the increase in the cAMP level in cells due to agonist reaction was measurable, the cells were inoculated into each well of a white cell culture plate and incubated for 24 hours in a 37° C. incubator in the presence of 5% CO2. After the incubation, the medium was removed, and 15 μl of a 2:1 HBBS/10 mM HEPES:cAMP XS+Ab reagent was added. After 5 μl of the sample diluted 4 times with buffer was added, the vehicle concentration was set to 1%, and the MC4R agonist compound diluted at each step concentration was added, followed by reaction at 37° C. for 30 minutes. The activity (%) of each agonist compound is expressed as 100% ×(average RLU value of sample'average RLU value of vehicle control)/(average RLU value of max control−average RLU value of vehicle control), and the value was analyzed by CBIS data analysis suite (ChemInnovation, CA).
Target sequence in this assay (P32245 whole entry, species assumed): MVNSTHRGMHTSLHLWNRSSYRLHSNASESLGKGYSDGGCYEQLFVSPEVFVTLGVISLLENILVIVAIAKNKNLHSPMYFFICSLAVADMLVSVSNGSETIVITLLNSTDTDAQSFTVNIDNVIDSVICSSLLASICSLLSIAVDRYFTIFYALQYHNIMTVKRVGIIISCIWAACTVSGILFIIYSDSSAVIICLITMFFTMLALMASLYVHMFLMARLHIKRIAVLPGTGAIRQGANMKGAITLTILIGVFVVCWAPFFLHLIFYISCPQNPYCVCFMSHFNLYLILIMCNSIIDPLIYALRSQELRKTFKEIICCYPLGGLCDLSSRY

[2] = biological target: T2, MC4R (melanocortin-4 receptor) (Homo sapiens, UniProt P32245); test: Luciferase assay (CRE-LUC, HEK MC4R-Luc cells); conditions: 5 h incubation, concentration inducing 50% of each agonist's own maximum luminescence
T2 construct: expressed in transfected cells
T2 sequence (P32245 whole entry, species assumed): as above
Experimental: In order to measure the agonist ability against MC4R (melanocortin-4 receptor), a cell line that permanently expresses the luciferase gene (CRE-LUC) under the control of MC4R and CRE (cAMP response element) was established. After a mammalian cell expression vector (pCDNA3 (Neo)) (Invitrogen) containing the MC4R gene was prepared, human embryonic kidney (HEK) cell lines were transformed by using Lipofectamine 2000 (Invitrogen) together with a vector (pCRE-Luc)(Stratagen) expressing a luciferase gene (CRE-LUC) under the control of a cAMP response element (CRE). Transformed cell lines (HEK MC4R-Luc) were incubated in a 37° C. incubator in the presence of 5% CO2 for 24 hours by using Dulbecco's Modified Eagles Medium (DMEM) containing 10% Heat-Inactivated Fetal Bovine Serum (GIBCO/BRL). The cell lines were incubated for four days in the presence of Dulbecco's Modified Eagles Medium (DMEM) containing 10 ml of selection medium (10% Heat-Inactivated Fetal Bovine Serum (GIBCO/BRL), 100 unit/ml of penicillin (GIBCO/BRL), 100 unit/ml of streptomycin (GIBCO/BRL), 800 μg/ml of Geneticin (G418) (GIBCO/BRL). The process of removing cells killed by the selection medium by replacing the medium with 10 ml of a new selection medium was repeated three times, once every 4 days. Individual colonies formed by the finally selected and propagated clones were transferred under a microscope to a 24-well cell culture plate containing 1 ml of selection medium per well and incubated for 4 days. Forskolin (SIGMA) was treated to a final concentration of 10 μM, and then incubated for five hours in a 37° C. incubator in the presence of 5% CO2. Each well was treated with 50 μl of a Bright-Glo luciferase reagent (Promega) and left at room temperature for 15 minutes, and then the luminescence of each well was measured by using a luminometer (Victor).
HEK MC4R-Luc cells were added to each well of a 96-well luminometer cell culture plate (Costar) to a size of 2.5×10^4 cells in 100 μl of a culture medium and then incubated in a 37° C. incubator in the presence of 6% CO2 for 18 hours. […] Each well was treated with 50 μl of a Bright-Glo luciferase reagent (Promega) and left at room temperature for five minutes, and then the luminescence of each well was measured by using a luminometer (Victor). […] EC0.5 MSH is expressed as a concentration that induces 50% of the maximum amount of luminescence that can be induced by NDP-α-MSH, and EC50 is expressed as a concentration that induces 50% of the maximum amount of luminescence that can be induced by each agonist. The measurements were measured using statistical software (Prizm).

MC4R [3] = biological target: T1, MC4R; test: β-arrestin assay (Pathhunter eXpress β-arrestin U2OS cell line); design: expressed in transfected cells; host or cells: U2OS (Pathhunter eXpress β-arrestin cell line); conditions: U2OS cells, PK-tagged MC4R and EA-tagged β-arrestin, 37° C. for 90 minutes
Excerpt: The melanocortin receptor is a type of G-protein coupled receptor (GPCR) and regulates various physiological responses by transducing signals from many neurotransmitters. When GPCR is phosphorylated, β-arrestin is bound to the phosphorylated part of the receptor and plays an important role in activating various signaling pathways in cells through interaction with other proteins. It is known that, when the melanocortin receptor interacts with an agonist, β-arrestin is mobilized and is involved in the β-arrestin-mediated signaling pathway. Therefore, the activity of the melanocortin receptor can be evaluated through the measurement of β-arrestin.
A Pathhunter eXpress β-arrestin cell line (U2OS cell line) in which Prolink (PK)-tagged MC1R, MC3R, MC4R, MC5R and Enzyme acceptor (EA)-tagged β-arrestin were expressed together was established. When the MCR-PK portion of this cell line is activated, β-arrestin-EA is mobilized, and enzyme acceptor (EA) and Prolink (PK), which are the β-galactosidase enzyme fragments, interact. The activated enzyme hydrolyzes the substrate by β-galactosidase activity to produce a chemiluminescent signal, so that the activity can be measured. After the Pathhunter eXpress β-arrestin cell line (U2OS cell line) was incubated, the cells were inoculated into each well of the cell culture plate and incubated for 48 hours in a 37° C. incubator in the presence of 5% CO2. After the incubation, 5 μl of the sample diluted 5 times with buffer was added, the vehicle concentration was set to 1%, and the MC4R agonist compound diluted at each step concentration was added, followed by reaction at 37° C. for 90 minutes. The activity (%) of each agonist compound is expressed as 100% ×(average RLU value of sample−average RLU value of vehicle control)/(average maximum value of control ligand−average RLU value of vehicle control), and the value was analyzed by CBIS data analysis suite (ChemInnovation, CA).
Target sequence in this assay (P32245 whole entry, species assumed): as above
Target sequence in this assay (P32121 whole entry partner, species assumed): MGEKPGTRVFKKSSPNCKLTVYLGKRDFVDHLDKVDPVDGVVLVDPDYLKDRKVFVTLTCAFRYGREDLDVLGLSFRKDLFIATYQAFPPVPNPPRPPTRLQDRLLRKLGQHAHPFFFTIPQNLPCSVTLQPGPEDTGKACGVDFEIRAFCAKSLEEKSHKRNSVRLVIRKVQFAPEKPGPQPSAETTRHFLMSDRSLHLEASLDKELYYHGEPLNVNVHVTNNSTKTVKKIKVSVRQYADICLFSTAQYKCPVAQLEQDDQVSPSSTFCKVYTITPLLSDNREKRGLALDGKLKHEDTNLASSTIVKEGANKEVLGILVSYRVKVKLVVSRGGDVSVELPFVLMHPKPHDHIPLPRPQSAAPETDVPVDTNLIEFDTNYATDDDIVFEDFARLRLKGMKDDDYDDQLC

EC50 (MC4R [1])	EC50 [2]	EC50 (MC4R [3])	Compound
58.9 nM	0.629 nM	8.02 nM	CC(C)(C)C(=O)N([C@H]1C[C@@H](C(=O)N2CCOCC2)N(C(=O)[C@@H]2CN(C(C)(C)C)C[C@H]2c2ccc(F)cc2F)C1)[C@H]1CC[C@@H](C)CC1 [Example 1, N-((3S,5S)-1-((3S,4R)-1-(tert-butyl)-4-(2,4-difluorophenyl)pyrrolidine-3-carbonyl)-5-(morpholine-4-carbonyl)pyrrolidin-3-yl)-N-((1s,4R)-4-methylcyclohexyl)pivalamide hydrochloride]
59.6 nM	2.47 nM	15 nM	CC(C)C(=O)N([C@H]1C[C@@H](C(=O)N2CCOCC2)N(C(=O)[C@@H]2CN(C(C)(C)C)C[C@H]2c2ccc(F)cc2F)C1)[C@H]1CC[C@@H](C)CC1 [Example 2, N-((3S,5S)-1-((3S,4R)-1-(tert-butyl)-4-(2,4-difluorophenyl)pyrrolidine-3-carbonyl)-5-(morpholine-4-carbonyl)pyrrolidin-3-yl)-N-((1s,4R)-4-methylcyclohexyl)isobutyramide hydrochloride]
49.6 nM	0.922 nM	4.5 nM	CC(C)C(=O)N([C@H]1C[C@@H](C(=O)N2CCOCC2)N(C(=O)[C@@H]2CN(C(C)(C)C)C[C@H]2c2ccc(Cl)cc2F)C1)[C@H]1CC[C@@H](C)CC1 [Example 3, N-((3S,5S)-1-((3S,4R)-1-(tert-butyl)-4-(4-chloro-2-fluorophenyl)pyrrolidine-3-carbonyl)-5-(morpholine-4-carbonyl)pyrrolidin-3-yl)-N-((1s,4R)-4-methylcyclohexyl)isobutyramide hydrochloride]
26.2 nM	0.555 nM	4.2 nM	CC(C)(C)C(=O)N([C@H]1C[C@@H](C(=O)N2CCOCC2)N(C(=O)[C@@H]2CN(C(C)(C)C)C[C@H]2c2ccc(Cl)cc2F)C1)[C@H]1CC[C@@H](C)CC1 [Example 4, N-((3S,5S)-1-((3S,4R)-1-(tert-butyl)-4-(4-chloro-2-fluorophenyl)pyrrolidine-3-carbonyl)-5-(morpholine-4-carbonyl)pyrrolidin-3-yl)-N-((1s,4R)-4-methylcyclohexyl)pivalamide hydrochloride]
51.4 nM	4.04 nM	13 nM	CC1(C)CCC(N(C(=O)C(C)(C)C)[C@H]2C[C@@H](C(=O)N3CCOCC3)N(C(=O)[C@@H]3CN(C(C)(C)C)C[C@H]3c3ccc(Cl)cc3)C2)CC1 [Example 6, N-((3S,5S)-1-((3S,4R)-1-(tert-butyl)-4-(4-chlorophenyl)pyrrolidine-3-carbonyl)-5-(morpholine-4-carbonyl)pyrrolidin-3-yl)-N-(4,4-dimethylcyclohexyl)pivalamide hydrochloride]
